Entries after “also recorded” stand apart in the source; their conditions may differ.
Assays:
[1] = system: scopolamine-induced cognitive impairment mouse model; test: Morris water maze test in scopolamine-induced cognitive impairment mouse model; type: in vivo, C57BL/6J mice; settings: scopolamine 5 mg/kg i.p.; for escape latency to the platform: fifth day of training trials; for number of crossing the platform: last day without platform
[2] = target: T1, eqBuChE (Equus caballus, UniProt P81908); test: Kinetics of BuChE inhibition; type: biochemical, equine
T1 sequence (P81908 whole entry): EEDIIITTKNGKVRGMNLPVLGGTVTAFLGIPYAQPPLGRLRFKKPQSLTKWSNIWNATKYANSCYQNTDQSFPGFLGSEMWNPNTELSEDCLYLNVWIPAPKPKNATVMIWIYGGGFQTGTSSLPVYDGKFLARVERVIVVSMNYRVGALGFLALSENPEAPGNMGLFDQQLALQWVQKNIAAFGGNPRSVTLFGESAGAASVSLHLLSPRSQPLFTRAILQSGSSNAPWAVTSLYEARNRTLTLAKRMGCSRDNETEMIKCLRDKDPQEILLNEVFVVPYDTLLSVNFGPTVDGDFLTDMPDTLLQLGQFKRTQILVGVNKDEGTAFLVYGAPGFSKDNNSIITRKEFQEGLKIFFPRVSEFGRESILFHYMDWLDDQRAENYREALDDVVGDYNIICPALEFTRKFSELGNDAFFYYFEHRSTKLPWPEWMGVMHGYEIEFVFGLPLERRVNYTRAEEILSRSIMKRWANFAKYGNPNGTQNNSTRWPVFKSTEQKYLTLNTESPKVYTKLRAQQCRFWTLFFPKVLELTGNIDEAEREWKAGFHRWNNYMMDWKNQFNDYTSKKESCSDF

[3] = system: LPS-induced NO production of mouse microglia cells (BV-2); test: LPS-induced NO production in BV-2 microglia; type: cell-based; settings: for NO production: 10 μM compound, LPS-induced BV-2 cells
[4] = target: T1, eqBuChE; test: eqBuChE inhibition, modified Ellman's method; type: biochemical, equine
[5] = system: ICR mice; test: Acute toxicity test; settings: ICR mice
[6] = Acute toxicity test; settings: both, ICR, mouse, in vivo, po, 1000 mg/kg
[7] = target: eeAChE (Electrophorus electricus, UniProt O42275); test: eeAChE inhibition, modified Ellman's method; type: biochemical, electric eel
eeAChE, sequence (O42275 24-633): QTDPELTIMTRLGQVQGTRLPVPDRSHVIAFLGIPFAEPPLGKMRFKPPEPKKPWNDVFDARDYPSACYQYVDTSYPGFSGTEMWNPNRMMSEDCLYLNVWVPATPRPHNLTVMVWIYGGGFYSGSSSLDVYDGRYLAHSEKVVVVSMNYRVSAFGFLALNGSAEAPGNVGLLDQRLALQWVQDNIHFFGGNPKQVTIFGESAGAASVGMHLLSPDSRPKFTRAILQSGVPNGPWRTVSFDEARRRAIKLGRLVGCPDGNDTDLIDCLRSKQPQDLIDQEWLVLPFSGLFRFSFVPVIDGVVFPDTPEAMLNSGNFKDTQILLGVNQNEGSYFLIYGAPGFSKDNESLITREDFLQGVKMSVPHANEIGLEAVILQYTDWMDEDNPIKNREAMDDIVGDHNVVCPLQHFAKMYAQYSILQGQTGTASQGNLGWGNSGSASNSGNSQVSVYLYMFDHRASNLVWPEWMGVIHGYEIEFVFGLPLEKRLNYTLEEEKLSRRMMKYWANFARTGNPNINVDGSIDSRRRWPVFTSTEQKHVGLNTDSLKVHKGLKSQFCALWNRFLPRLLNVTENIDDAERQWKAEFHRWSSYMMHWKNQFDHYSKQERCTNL

[8] = target: huBuChE (Homo sapiens, UniProt P06276); test: huBuChE inhibition, modified Ellman's method; type: biochemical
huBuChE, sequence (P06276 29-602): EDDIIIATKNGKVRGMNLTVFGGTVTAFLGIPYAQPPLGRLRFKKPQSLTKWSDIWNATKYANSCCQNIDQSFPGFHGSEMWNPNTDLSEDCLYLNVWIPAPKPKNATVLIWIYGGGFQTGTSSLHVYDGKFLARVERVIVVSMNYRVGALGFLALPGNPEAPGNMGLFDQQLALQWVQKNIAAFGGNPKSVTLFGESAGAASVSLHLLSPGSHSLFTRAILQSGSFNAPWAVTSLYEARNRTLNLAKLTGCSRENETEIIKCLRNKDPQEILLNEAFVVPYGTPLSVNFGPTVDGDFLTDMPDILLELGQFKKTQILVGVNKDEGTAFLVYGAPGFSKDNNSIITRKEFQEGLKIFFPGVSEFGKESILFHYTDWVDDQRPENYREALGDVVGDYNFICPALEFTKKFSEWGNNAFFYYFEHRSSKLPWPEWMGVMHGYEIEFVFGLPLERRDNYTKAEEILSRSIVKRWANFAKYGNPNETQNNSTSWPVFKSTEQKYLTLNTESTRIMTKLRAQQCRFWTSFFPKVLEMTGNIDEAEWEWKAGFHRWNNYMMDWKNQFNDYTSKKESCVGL

[9] = PAMPA-BBB in vitro blood-brain barrier permeation assay
[10] = system: BV-2 cells; test: BV-2 cell viability; settings: 10 μM, MTT, 24 h

COc1c(/C=C/c2cccc(OC(=O)N3CCCCC3)c2)oc(C)cc1=O [Compound 7p, (E)-3-(2-(3-methoxy-6-methyl-4-oxo-4H-pyran-2-yl)vinyl)phenyl piperidine-1-carboxylate]
escape latency to the platform ([1]; 1 mg/kg oral once daily): 30.24 s | number of crossing the platform ([1]; 1 mg/kg oral once daily): 3.3 times | escape latency to the platform ([1]; 5 mg/kg oral once daily): 29.12 s | number of crossing the platform ([1]; 5 mg/kg oral once daily): 3.5 times | Ki [2]: 3.15 nM | Kib (inhibition constant for the enzyme-substrate complex) ([2]; Cornish-Bowden plot): 3.84 nM | type of BuChE inhibition ([2]; Dixon and Cornish-Bowden plots): mix-type; also recorded: mixed-type inhibition | NO production [3]: 71.18% | inhibition at 10 µM ([3]; Mus musculus, BV-2, read-out: NO inhibition): 28.8% | IC50 [4]: 4.68 ± 1.39 nM | fold increase in inhibiting eqBuChE ([4]; relative to compound 7g): 3 fold | abnormal behaviours or deaths after administration ([5]; 1000 mg/kg intragastric single dose, 14 d): no abnormal behaviours or deaths | pathological changes in heart, liver, spleen and brain (HE staining) ([5]; 1000 mg/kg, after 14 d, compared with control group): did not observe obvious pathological changes | LD50 at 14 d [6]: > 1000 mg/kg | IC50 [7]: > 20000 nM | IC50 [8]: 9.12 ± 0.57 nM | fold increase in inhibiting huBuChE ([8]; relative to compound 7g): 4 fold | BBB permeability in the PAMPA-BBB assay (in words) ([9]; PAMPA): high BBB permeability | Papp at 10 h, 25 μg/mL ([9]; PAMPA, pH 7.4): 5.7 ± 0.43 ×10⁻⁶ cm/s | CNS (±) ([9]; PAMPA-BBB classification from Pe): CNS + (CNS +: (high BBB permeability), Pe (×10^−6 cm/s) > 3.95)

C[C@]12CCC(=O)C=C1CC[C@@H]1[C@@H]2[C@@H](O)C[C@@]2(C)[C@H]1CC[C@]2(O)C(=O)CO [hydrocortisone, Hydrocortisone, reference compound]
NO production [3]: 70.25% | cell viability compared to the control group [10]: no significant differences

Reference: paper PMC10878344 (Journal of Enzyme Inhibition and Medicinal Chemistry, 2024)
